Laboratory results from US20120214760A1, “TREATMENT OF URINARY TRACT INFECTIONS WITH ANTIBACTERIAL AMINOGLYCOSIDE COMPOUNDS” (Achaogen, Inc., priority 2009, published 2012).
Converted amounts (≈) assume the structure as drawn. Read-outs that look alike come from different tables or passages of the source.

What was measured:
seven bacterial strains = assay: Murine neutropenic thigh model, all strains; format: in vivo
Experimental: The in vivo activity of Example 1 in the mouse neutropenic thigh model (Andes and Craig. Antimicrob Agents Chemother. 2002, 46:1665-1670) was determined against seven bacterial strains including susceptible Escherichia coli and Klebsiella pneumoniae; multi-drug resistant (MDR) clinical isolates of E. coli and K. pneumoniae that display resistance to multiple antibiotics (including AGs); MRSA; and two K. pneumoniae carbapenemases (KPC)-expressing strains (see Table 5). For this efficacy model, groups of six CD-1 mice were rendered neutropenic by two intraperitoneal injections of cyclophosphamide. The first injection was 150 mg/kg three days prior to infection (day −4), and the second injection was 100 mg/kg one day prior to infection (day −1). On study day 0, animals were inoculated intramuscularly (0.1 ml) with a known number of colony forming units (CFU) of the specified bacterial strain (ATCC 25922, AECO 1003, ATCC 43816, AKPN 1073, AKPN 1109, ATCC 33591 or ASMA 1030), tailored to the virulence of each strain in the model to maximize bacterial load while avoiding mortality in the untreated control arms. Antibiotics were administered via subcutaneous injection at 2 and 14 hours after bacterial challenge. At 26 hours, infected thigh tissue was harvested, homogenized, and plated to count CFU. […]

[1] = tested on: S. marcescens ASMA 1030, KPC; assay: Murine neutropenic thigh model; format: in vivo
Experimental: (§1) The in vivo activity of Example 1 in the mouse neutropenic thigh model (Andes and Craig. Antimicrob Agents Chemother. 2002, 46:1665-1670) was determined against seven bacterial strains including susceptible Escherichia coli and Klebsiella pneumoniae; multi-drug resistant (MDR) clinical isolates of E. coli and K. pneumoniae that display resistance to multiple antibiotics (including AGs); MRSA; and two K. pneumoniae carbapenemases (KPC)-expressing strains (see Table 5). For this efficacy model, groups of six CD-1 mice were rendered neutropenic by two intraperitoneal injections of cyclophosphamide. The first injection was 150 mg/kg three days prior to infection (day −4), and the second injection was 100 mg/kg one day prior to infection (day −1). On study day 0, animals were inoculated intramuscularly (0.1 ml) with a known number of colony forming units (CFU) of the specified bacterial strain (ATCC 25922, AECO 1003, ATCC 43816, AKPN 1073, AKPN 1109, ATCC 33591 or ASMA 1030), tailored to the virulence of each strain in the model to maximize bacterial load while avoiding mortality in the untreated control arms. Antibiotics were administered via subcutaneous injection at 2 and 14 hours after bacterial challenge. At 26 hours, infected thigh tissue was harvested, homogenized, and plated to count CFU. Untreated control animals were harvested at 2 hours post-infection to assess the initial bacterial load and at 26 hours post-infection to measure growth in the absence of antibiotic treatment.

[2] = tested on: K. pneumoniae AKPN 1109, KPC; assay: Murine neutropenic thigh model; format: in vivo
Experimental: Activity is presented as the log10 difference in CFU/thigh after 24 hours of antibiotic treatment compared to CFU/thigh just prior to antibiotic treatment (2 hours post-infection). Total dose per 24 hours is shown; dosing was q12 hours. 6 mice per group, Inoculum=8.3×10^5 CFU.
as §1

[3] = tested on: S. aureus ATCC 33591, MRSA; assay: Murine neutropenic thigh model; format: in vivo
Experimental: FIG. 4 is a line graph showing dose-responses of Example 1, arbekacin, gentamicin, vancomycin, and daptomycin in a murine neutropenic thigh model against an MRSA (ATCC 33591). Activity is presented as the log10 difference in CFU/thigh after 24 hours of antibiotic treatment compared to CFU/thigh just prior to antibiotic treatment (2 hours post-infection). Total dose per 24 hours is shown; dosing was q12 hours. 6 mice per group, Inoculum=1.2×10^3 CFU.
as §1

E. coli AECO 1003, MDR = assay: Murine neutropenic thigh model; format: in vivo
Experimental: Activity is presented as the log10 difference in CFU/thigh after 24 hours of antibiotic treatment compared to CFU/thigh just prior to antibiotic treatment (2 hours post-infection). Total dose per 24 hours is shown; dosing was q12 hours. 6 mice per group. Inoculum=1.5×10^3 CFU.
as §1

[4] = tested on: P. aeruginosa ATCC 27853 (APAE001); assay: MIC, CLSI broth microdilution; format: cell-based; conditions: Pseudomonas aeruginosa, ATCC27853; Table 2; read-out: MIC P. aeruginosa
In short: (§2)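 MICs were read after 20 hours at 35° C in ambient air, with a final inoculum of 5×10^5 CFU/mL from saline-suspended overnight colonies. Serial two-fold dilutions in Mueller Hinton Broth followed the CLSI reference method (M7-A7), with QC strains E. coli ATCC 25922, P. aeruginosa ATCC 27853 and S. aureus ATCC 29213.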

[5] = tested on: E. coli ATCC 25922 (AECO001); assay: MIC, CLSI broth microdilution; format: cell-based; conditions: for MIC: Escherichia coli
In short: as §2

CN[C@@H]1[C@@H](O)[C@@H](O[C@@H]2[C@@H](O)[C@H](O[C@H]3OC(CNCCO)=CC[C@H]3N)[C@@H](N)C[C@H]2NC(=O)[C@@H](O)CCN)OC[C@]1(C)O [Example 1, 6′-(2-Hydroxy-ethyl)-1-(4-amino-2(S)-hydroxy-butyryl)-sisomicin]
bacterial titers versus initial bacterial load (static level) (seven bacterial strains; all 7 strains): reducing bacterial titers back to or below the initial bacterial load | in vivo efficacy in words (seven bacterial strains; gentamicin resistant strains): efficacious | ED50/MIC [1]: 16.5 | ED50 ([1]; Serratia marcescens, sc, neutropenic CD-1 mice, subcutaneous at 2 and 14 hours): 16.5 mg/kg | ED50/MIC ([2]; K. pneumoniae AKPN 1109): 18-37 | ED50 ([2]; Klebsiella pneumoniae, sc, neutropenic CD-1 mice, subcutaneous at 2 and 14 hours, K. pneumoniae AKPN 1109): 9.2 mg/kg | bacterial load after 24 hours of treatment versus initial bacterial load at 2 hours post-inoculation ([2]; highest test dosage, challenge 8.3×10^5 CFU AKPN 1109, FIG. 3): reduced back to the level of the initial bacterial load | ED50/MIC ([3]; S. aureus ATCC 33591): 4.8-9.7 | ED50 ([3]; Staphylococcus aureus, sc, neutropenic CD-1 mice, subcutaneous at 2 and 14 hours, S. aureus ATCC 33591): 38.7 mg/kg | bacterial load after 24 hours of treatment versus initial bacterial load at 2 hours post-inoculation ([3]; two highest dosages, challenge 1.2×10^3 CFU ATCC 33591, FIG. 4): reduced to below the initial bacterial load | ED50/MIC (E. coli AECO 1003, MDR; E. coli AECO 1003): 14.6 | ED50 (E. coli AECO 1003, MDR; Escherichia coli, sc, neutropenic CD-1 mice, subcutaneous at 2 and 14 hours, E. coli AECO 1003): 14.6 mg/kg | bacterial titer after 24 hours of treatment versus initial bacterial load at 2 hours post-inoculation (E. coli AECO 1003, MDR; highest dosage, challenge 1.5×10^3 CFU AECO 1003, FIG. 1): reduced to below the initial bacterial load | MIC [4]: 1 to 16 µg/mL (≈ 1.69 to 27 µM) | MIC ([5]; ATCC25922, Table 2, read-out: MIC E. coli): < 1 µg/mL | MIC ([5]; ATCC25922, Table 5, E. coli Susceptible ATCC 25922, read-out: MIC): 1 µg/mL (≈ 1.69 µM) | MIC ([5]; Table 1, AECO001 is ATCC25922, read-out: MIC AECO001): < 1 µg/mL | MIC AECO001 ([5]; Table 3, ATCC25922): 0.5 µg/mL (≈ 0.844 µM)
